The results in this text go back to patent US8058243B2, “Method for treating a brain cancer with ifenprodil” (HSC Research and Development Limited Partnership, priority 2006, dated 2011).

Molecules are shown by their SMILES. Like-named read-outs stand apart in the source and are kept apart here.

In the test the test system is murine neural precursor cells (neurosphere cultures). In words: HTS of LOPAC library against secondary neurosphere cultures, MTT proliferation assay at 3 μM, day 7 (z score, P value). The format is cell-based, mouse.
The mark [1] stands for this setting: yes = significantly inhibited neurosphere proliferation (P<0.01) in the primary screen.
Setting [2] is: LOPAC library screen, 3 μM, MTT, secondary neurosphere cultures, day 7.
The mark [3] stands for this setting: LOPAC primary screen, neurosphere MTT proliferation, 3 μM, day 7.
[4] abbreviates: yes/no: significantly inhibited neurosphere proliferation (P<0.01) in the primary screen.
The mark [5] stands for this setting: LOPAC library screen, 3 μM, MTT, neurosphere cultures.
Setting [6] is: yes/no: significantly inhibited neurosphere proliferation in the primary screen.
The mark [7] stands for this setting: LOPAC screen, neurosphere MTT proliferation, 3 μM, day 7.
The mark [8] stands for this setting: yes/no: significantly inhibited neurosphere proliferation (P<0.01) in primary screen.

As to `O=[N+]([O-])c1ccc(CSc2ncnc3c2ncn3[C@@H]2O[C@H](CO)[C@@H](O)[C@H]2O)cc1` [S-(4-Nitrobenzyl)-6-thioinosine], where the note is “168 h, 3 µM”, the “Z Score” value is −0.4271 and the Z score is on record as −0.427. In addition, the Activity entry under setting [1] was “no”.
For `CN(C)CCC(c1ccc(Br)cc1)c1ccccn1.O=C(O)/C=C\C(=O)O` (single isomer, unassigned; (+)) [(+)-Brompheniramine maleate], the “Z Score” value under setting [2] is reported as −3.976. For the same compound, the Z score under setting [3] is −3.976. For the same compound, the Activity result under setting [4] was “yes”.
For `CCCCCCCCCC[Si](C)(C)CCC(=O)NC(Cc1ccc(C)cc1)c1ccccc1` (stereo not shown) [Sandoz 58-035], under setting [5], the “Z Score” value was 0.3325. Besides, under “primary LOPAC screen, 3 μM, MTT, neurosphere proliferation”, the Z score is given as 0.332. The Activity result under setting [6] is given as “no”.
For the compound `CCCN(CCC)C(=O)C(CCC(=O)O)NC(=O)c1ccccc1` (stereo not shown) [Proglumide], the “Z Score” value under setting [2] is −1.907. Further, the Z score under setting [3] is on record as −1.907. In addition, the Activity result under setting [1] is listed as “no”.
For `O=C1N=c2cc(Cl)c(Cl)cc2=NC1=O` [6,7-Dichloroquinoxaline-2,3-dione], under setting [5], the “Z Score” value was 0.1274. For the same compound, the Z score under setting [7] is given as 0.127. In addition, the Activity entry under setting [8] is on record as “no”.
For the compound `O=c1ccc2ccc(O)c(O)c2o1` [Daphnetin], the Activity entry is reported as “no”. For the setting “168 h, 3 µM”, the “Z Score” value is on record as −0.9798 and the Z score is recorded as −0.980.
Take `CCCCCCCCCCCCCCCC(=O)NCCO` [Palmitoylethanolamide]: the Activity entry is “no”. Moreover, the “Z Score” value (LOPAC library screen at 3 μM, secondary neurosphere cultures, MTT) is −0.9134. Also, under setting [3], the Z score was −0.913.
For `Clc1ccc2c(c1)C(N1CCNCC1)=Nc1ccccc1O2` [Amoxapine], for the setting “168 h, 3 µM”, the “Z Score” value was −1.041 and the Z score is −1.041. Under setting [6], the Activity result is on record as “no”.
Take `Br.CCCN1CCC[C@@H]2c3ccc(O)cc3CC[C@@H]21` [cis-(B1)-8-OH-PBZI hydrobromide]: the “Z Score” value was −2.297.
Take `NC(=O)CC[C@H](N)C(=O)O` [L-Glutamine]: under “168 h, 3 µM”, the “Z Score” value is 0.8278 and the Z score is recorded as 0.828. Further, the Activity result under setting [8] is given as “no”.
As to `NC(CCCCCP(=O)(O)O)C(=O)O` (stereo not shown) [(B1)-2-Amino-7-phosphonoheptanoic acid], the “Z Score” value is listed as −1.02.
In the case of `CC[N+](C)(C)c1cccc(O)c1` [Edrophonium chloride], the “Z Score” value is −0.8064. Also, under setting [3], the Z score is recorded as −0.806. Further, the Activity result under setting [8] is “no”.
`CCOC(=O)C1=C(C)NC(C)=C(C(=O)OC)C1c1cccc([N+](=O)[O-])c1` (stereo not shown) [Nitrendipine]: the “Z Score” value under setting [2] is on record as −1.61. Also, the Z score under setting [3] is on record as −1.610.
Turning to `C[C@@H]1OC[C@H](C[N+](C)(C)C)O1.[I-]` [(+)-cis-Dioxolane iodide], the “Z Score” value is given as −3.402. Also, under setting [3], the Z score is given as −3.402. Also, the Activity entry under setting [4] is “yes”.
For the compound `Cl.c1ccc(CN2CCC3(CCCc4ccccc43)CC2)cc1` [L-687,384 hydrochloride], the “Z Score” value was −9.156. Also, the Z score under setting [3] is recorded as −9.156. Besides, the Activity entry under setting [1] was “yes”.
As for `Br.CO[C@H]1CC=C2CCN3CCC4=C(CC(=O)OC4)[C@]23C1` [Dihydro-beta-erythroidine hydrobromide], the “Z Score” value is recorded as −1.788. Besides, under setting [3], the Z score is reported as −1.788. The Activity result under setting [8] is recorded as “no”.
Consider `Cl.Cl.NNCc1cccc(O)c1` [3-Hydroxybenzylhydrazine dihydrochloride], for which the “Z Score” value is recorded as −0.4866. In addition, the Z score under setting [3] is on record as −0.487. In addition, the Activity result under setting [8] was “no”.
Regarding `Cn1c(=O)c2[nH]c(C3CCCC3)nc2n(C)c1=O` [8-Cyclopentyl-1,3-dimethylxanthine], for the setting “168 h, 3 µM”, the “Z Score” value is listed as −0.1248 and the Z score is listed as −0.125. The Activity result under setting [8] was “no”.
In the case of `C=CCc1ccccc1OCC(O)CNC1(C)CCC(C(C)(C)NC(=O)CBr)CC1` (stereo not shown) [Bromoacetyl alprenolol menthane], the “Z Score” value was found to be 1.442. The Z score under setting [7] worked out at 1.442. Under setting [8], the Activity entry is recorded as “no”.
